# Earlier results, collected in PMC10780633, “Novel Multi-Target Agents Based on the Privileged Structure of 4-Hydroxy-2-quinolinone” (Molecules, 2023).
# Set-up: method as in PMID 16955399, PMID 26834836
# Settings: more potent than linomide; cited from earlier work
smiles,measurement,value
COc1cccc2c1c(O)c(C(=O)N(C)c1ccc(C(F)(F)F)cc1)c(=O)n2C [Tasquinimod],Anti-tumor potency relative to linomide,30–60 times
